The values that follow come from patent US20230167073A1 (Teijin Pharma Limited, priority 2020, published 2023).

SMILES strings stand for the structures.

This experiment has as its target T1, Human TRPC6 (Homo sapiens, UniProt Q9Y210).
T1 construct: expressed in transfected cells
T1 sequence (Q9Y210 1-931): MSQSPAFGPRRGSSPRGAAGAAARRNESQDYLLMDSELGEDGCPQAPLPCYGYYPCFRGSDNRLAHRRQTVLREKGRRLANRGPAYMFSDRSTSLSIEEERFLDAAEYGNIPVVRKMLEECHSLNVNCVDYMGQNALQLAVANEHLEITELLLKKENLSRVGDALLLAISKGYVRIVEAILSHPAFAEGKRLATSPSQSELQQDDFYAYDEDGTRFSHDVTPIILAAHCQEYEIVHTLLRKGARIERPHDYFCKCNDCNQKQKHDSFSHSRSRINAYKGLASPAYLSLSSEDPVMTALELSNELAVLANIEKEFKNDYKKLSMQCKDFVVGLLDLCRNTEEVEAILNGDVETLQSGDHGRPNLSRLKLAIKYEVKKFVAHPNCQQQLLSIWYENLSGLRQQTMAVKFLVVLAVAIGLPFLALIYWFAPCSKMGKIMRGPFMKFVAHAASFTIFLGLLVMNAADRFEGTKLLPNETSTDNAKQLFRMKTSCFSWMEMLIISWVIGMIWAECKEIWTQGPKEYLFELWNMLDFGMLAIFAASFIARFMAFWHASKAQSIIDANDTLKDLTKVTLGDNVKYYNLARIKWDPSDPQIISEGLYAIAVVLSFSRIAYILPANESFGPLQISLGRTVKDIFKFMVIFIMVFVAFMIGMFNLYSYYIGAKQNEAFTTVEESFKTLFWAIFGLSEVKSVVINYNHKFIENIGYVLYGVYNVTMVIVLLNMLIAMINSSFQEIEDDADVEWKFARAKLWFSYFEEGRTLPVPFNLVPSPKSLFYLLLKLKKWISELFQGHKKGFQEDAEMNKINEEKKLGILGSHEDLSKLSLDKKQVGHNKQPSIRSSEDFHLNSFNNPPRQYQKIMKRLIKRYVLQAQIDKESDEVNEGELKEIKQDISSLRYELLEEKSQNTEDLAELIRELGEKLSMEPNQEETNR
The experiment is described as follows: Evaluation of TRPC6 channel inhibitory activity (2), HEK293 cells with stably introduced human TRPC6, OAG stimulation, FLIPR tetra (Compound Nos. 1293 to 1405). It is filed as cell-based. The settings on record: HEK293 cells with stably introduced human TRPC6, OAG 50 μM/0.5% DMSO, read-out: Inhibitory activity (pIC50 class) (converted). How it is done:
Evaluation of TRPC6 Channel Inhibitory Activity (2) (Compound Nos. 1293 to 1405)
The activity of the TRPC6 inhibitor was measured by stimulating HEK293 cells, in which human TRPC6 was stably introduced, with OAG (1-Oleoyl-2-acetyl-sn-glycerol, Miliipore Sigma, 06754), using the FLIPR tetra system. The cells were proliferated in a humid environment at 37° C. 5% CO2 using a growth medium (DMEM (Dulbecco's Modified Eagle's Medium) high glucose containing 10% fetal bovine serum, 1×PSGlu (penicillin-streptomycin glutamine), 1×NEAA (Non-essential amino acid), sodium pyruvate and 200 μg/mL hyglomycin. For cell subculture, the cells were proliferated to 70-90% confluence, and gently washed twice with PBS (phosphate-buffered saline) free of calcium and magnesium after removing the medium. Then, the cells were incubated at 37° C. for 5 minutes after adding trypsin (3 mL), peeled off by tapping the flask at the base of the hand, 7 mL of growth medium was added to inactivate trypsin, and then the cells were resuspended. Usually, the cells were separated every 2-3 days to become a cell density of ⅕. The day before evaluation, the cells were seeded in a poly-D-lysine (PDL) coated 384-well plate using a multi-channel pipette or multidrop at a cell density of 1.0-1.5×10^4 cells/25 μL/well. After culturing overnight in a PDL-coated 384 Blackwell plate, a fluorescent dye buffer was added first to the cells and the cells were cultured at room temperature for 90-120 minutes. For preparing 10 mL of fluorescent dye buffer, 9 mL of assay buffer, 1 mL of 10×PBX signal enhancer, and 10 μL of calcium indicator were mixed. Cells treated with the compounds of each level 25 minutes before the stimulation with OAG of TRPC6 agonist were incubated. OAG solution was prepared by adding OAG to assay buffer (Ca ringer solution base: 10 mM HEPES (4-(2-hydroxyethyl)-1-piperazine-ethanesulfonic acid), 4 mM MgCl2, 120 mM NaCl, 5 mM KCl, pH=7.2 (25° C.)+0.1% BSA+2 mM CaCl2)) to give an OAG concentration of 0.2 mM/2% DMSO. The final concentration of OAG added to the cells is 50 μM/0.5% DMSO. A volume of 12.5 μL of OAG solution was added, and activation of TRPC6 channel was measured using the FLIPR tetra system assaying the change in intracellular calcium level as an index. The 180 seconds imaging frame was defined as the background signal, and the subtraction of the background signal from the raw data was used as the fluorescence peak signal. Each fluorescence peak signal is standardized using an OAG-induced signal and buffer-induced signal as 100% and 0%, respectively. The inhibition rate obtained by plotting the peak signal after the addition of the compounds of each level was analyzed by a four-parameter logistic regression to quantify the inhibition rate in the logarithm of the inverse of the effective concentration which gives a 50% inhibition rate (pIC50). The intensity was expressed by the above-mentioned symbols (+, ++, +++).

With `Cn1nc(-c2ccccn2)cc1Oc1cc(C#N)ccc1-c1cc(Cl)c(CN)cn1` [compound 1316, 4-[5-(aminomethyl)-4-chloropyridin-2-yl]-3-(2-methyl-5-pyridin-2-ylpyrazol-3-yl)oxybenzonitrile], the IC50 is under 10 nM.

On to `Cn1nc([C@H]2CCCO2)cc1Oc1cc(C#N)ccc1-c1ccc(CCN)cn1` [compound 1317], for which the IC50 is under 10 nM. As for `Cn1nc(-c2ccccn2)cc1Oc1cc(C#N)ccc1-c1ncc(C(F)(F)CN)cn1` [compound 1318, 4-[5-(2-amino-1,1-difluoroethyl)pyrimidin-2-yl]-3-(2-methyl-5-pyridin-2-ylpyrazol-3-yl)oxybenzonitrile], the IC50 was 10 to 1000 nM. Under `Cc1cc(Oc2cc(C#N)ccc2-c2ncc(C(F)(F)CN)cn2)cc(N2CCOCC2)n1` [compound 1319, 4-[5-(2-amino-1,1-difluoroethyl)pyrimidin-2-yl]-3-(2-methyl-6-morpholin-4-ylpyridin-4-yl)oxybenzonitrile] stands 10 to 1000 nM; under `Cc1cc(Oc2cc(Cl)ccc2-c2ccc(CN)cn2)cc(N2CCOCC2)n1` [compound 1321, [6-[4-chloro-2-(2-methyl-6-morpholin-4-ylpyridin-4-yl)oxyphenyl]pyridin-3-yl]methanamine], 10 to 1000 nM. For the compound `Cn1nc(-c2ccccn2)cc1Oc1cc(Cl)ccc1-c1ncc(CCN)cn1` [compound 1322, 2-[2-[4-chloro-2-(2-methyl-5-pyridin-2-ylpyrazol-3-yl)oxyphenyl]pyrimidin-5-yl]ethanamine], the IC50 was under 10 nM. Under `Cn1nc(-c2ccccn2)cc1Oc1cc(Cl)ccc1-c1ncc(CN)cn1` [compound 1323, [2-[4-chloro-2-(2-methyl-5-pyridin-2-ylpyrazol-3-yl)oxyphenyl]pyrimidin-5-yl]methanamine] stands under 10 nM; under `Cn1nc(-c2ccccn2)cc1Oc1cc(Cl)ccc1-c1ncc([C@H](F)CN)cn1` [compound 1324, (2S)-2-[2-[4-chloro-2-(2-methyl-5-pyridin-2-ylpyrazol-3 yl)oxyphenyl]pyrimidin-5-yl]-2-fluoroethanamine], under 10 nM.

For `Cn1nc(-c2ccccn2)cc1Oc1cc(Cl)ccc1-c1ncc([C@@H](F)CN)cn1` [compound 1325, (2R)-2-[2-[4-chloro-2-(2-methyl-5-pyridin-2-ylpyrazol-3-yl)oxyphenyl]pyrimidin-5-yl]-2-fluoroethanamine], the IC50 was under 10 nM. Under `Cn1nc(-c2ccccn2)cc1Oc1cc(C#N)ccc1-c1ccc(CN)nn1` [compound 1326, 4-[6-(aminomethyl)pyridazin-3-yl]-3-(2-methyl-5-pyridin-2-ylpyrazol-3-yl)oxybenzonitrile] stands 10 to 1000 nM; under `COc1nc(-c2ccc(C#N)cc2Oc2cc(-c3ccccn3)nn2C)ncc1[C@@H](O)CN` [compound 1327, 4-[5-[(1R)-2-amino-1-hydroxyethyl]-4-methoxypyrimidin-2-yl]-3-(2-methyl-5-pyridin-2-ylpyrazol-3-yl)oxybenzonitrile], 10 to 1000 nM; under `COc1nc(-c2ccc(C#N)cc2Oc2cc(-c3ccccn3)nn2C)ncc1[C@H](O)CN` [compound 1328, 4-[5-[(1S)-2-amino-1-hydroxyethyl]-4-methoxypyrimidin-2-yl]-3-(2-methyl-5-pyridin-2-ylpyrazol-3-yl)oxybenzonitrile], 10 to 1000 nM.

As to `Cc1cc(Oc2nc(Cl)ccc2-c2ccc(CCN)cc2)cc(N2CCOCC2)n1` [compound 1329, 2-[4-[6-chloro-2-(2-methyl-6-morpholin-4-ylpyridin-4-yl)oxypyridin-3-yl]phenyl]ethanamine], the IC50 is over 1000 nM.

Regarding `Cn1nc([C@H]2CCCOC2)cc1Oc1cc(C#N)ccc1-c1ccc(CN)cn1` [compound 1330, 4-[5-(aminomethyl)pyridin-2-yl]-3-[2-methyl-5-[(3R)-oxan-3-yl]pyrazol-3-yl]oxybenzonitrile], the IC50 is under 10 nM. As for `Cn1nc(-c2ccccn2)cc1Oc1cc(C#N)cnc1-c1ccc(CCN)cc1` [compound 1331, 6-[4-(2-aminoethyl)phenyl]-5-(2-methyl-5-pyridin-2-ylpyrazol-3-yl)oxypyridine-3-carbonitrile], the IC50 is over 1000 nM. For `Cn1nc(-c2ccccn2)cc1Oc1cc(Cl)ncc1-c1ccc(CCN)cc1` [compound 1332, 2-[4-[6-chloro-4-(2-methyl-5-pyridin-2-ylpyrazol-3-yl)oxypyridin-3-yl]phenyl]ethanamine] the value was over 1000 nM; for `Cn1nc(-c2ccccn2)cc1Oc1cc(C#N)ccc1-c1nc(Cl)ccc1CN` [compound 1333, 4-[3-(aminomethyl)-6-chloropyridin-2-yl]-3-(2-methyl-5-pyridin-2-ylpyrazol-3-yl)oxybenzonitrile], 10 to 1000 nM; for `Cn1nc(-c2ccccn2)cc1Oc1cc(C#N)ccc1-c1ccc(CN)c(Cl)n1` [compound 1334, 4-[5-(aminomethyl)-6-chloropyridin-2-yl]-3-(2-methyl-5-pyridin-2-ylpyrazol-3-yl)oxybenzonitrile], under 10 nM. For `Cn1nc(-c2ccccn2)cc1Oc1cc(F)ccc1-c1ncc([C@H](F)CN)cn1` [compound 1335, (2S)-2-fluoro-2-[2-[4-fluoro-2-(2-methyl-5-pyridin-2-ylpyrazol-3-yl)oxyphenyl]pyrimidin-5-yl]ethanamine] the value was under 10 nM; for `Cc1cc(Oc2cc(Cl)ccc2-c2ncc([C@@H](F)CN)cn2)cc(N2CCOCC2)n1` [compound 1336, (2R)-2-[2-[4-chloro-2-(2-methyl-6-morpholin-4-ylpyridin-4-yl)oxyphenyl]pyrimidin-5-yl]-2-fluoroethanamine], 10 to 1000 nM; for `Cc1cc(Oc2cc(Cl)ccc2-c2ncc([C@H](F)CN)cn2)cc(N2CCOCC2)n1` [compound 1337, (2S)-2-[2-[4-chloro-2-(2-methyl-6-morpholin-4-ylpyridin-4-yl)oxyphenyl]pyrimidin-5-yl]-2-fluoroethanamine], under 10 nM. Under `Cn1nc(-c2ccccn2)cc1Oc1cc(Cl)ccc1-c1ccc([C@H](F)CN)cn1` [compound 1338, (2S)-2-[6-[4-chloro-2-(2-methyl-5-pyridin-2-ylpyrazol-3-yl)oxyphenyl]pyridin-3-yl]-2-fluoroethanamine] stands under 10 nM; under `Cn1nc(-c2ccccn2)cc1Oc1cc(Cl)ccc1-c1ccc([C@@H](F)CN)cn1` [compound 1339, (2R)-2-[6-[4-chloro-2-(2-methyl-5-pyridin-2-ylpyrazol-3-yl)oxyphenyl]pyridin-3-yl]-2-fluoroethanamine], under 10 nM.

For `Cn1nc(-c2ccccn2)cc1Oc1cc(Cl)ccc1-c1ccc(CN)cn1` [compound 1340, [6-[4-chloro-2-(2-methyl-5-pyridin-2-ylpyrazol-3-yl)oxyphenyl]pyridin-3-yl]methanamine], the IC50 is under 10 nM.
